Results published in patent US20230270753A1, “COMBINATIONS OF GABAA ALPHA 5 AGONISTS AND SV2A INHIBITORS AND METHODS OF USING IN THE TREATMENT OF COGNITIVE IMPAIRMENT” (AGENEBIO, INC., priority 2020, published 2023).

System: aged-impaired (AI) Long-Evans rats
Assay: Morris Water Maze retention trial, levetiracetam (Example 1)
Assay type: in vivo, rat
Conditions: levetiracetam 5 mg/kg/day i.p.; retention trial 24 hours after last training trial
Procedure: Six aged-impaired (AI) Long-Evans rats (as characterized above) were tested for their memory of new spatial information in the Morris water maze (MWM), under different drug/control treatment conditions (vehicle control and two different dosage levels of levetiracetam). A retention trial was performed after the training trials, as described below. The MWM apparatus consists of a large, circular pool (diameter 1.53 m; height, 0.58 m) filled with water (27° C.) that is made opaque through the addition of non-toxic pigment or some other substance. In the typical “hidden platform” version of the test, rats are trained to find a camouflaged white escape platform (height, 34.5 cm) that is positioned in the center of one quadrant of the maze about 1.0 cm below the water surface. This platform can be retracted to the bottom of the tank or raised to its normal position from outside the maze during behavioral testing. The location of the platform remains constant from trial to trial. […] The behavior of a rat in the pool is recorded by a camera that is suspended 2.5 m above the center of the pool. […] In the retention trial, the time the AI rats spent swimming in the target quadrant is measured and further plotted as a percentage of total swimming time. […]

CC[C@@H](C(N)=O)N1CCCC1=O [levetiracetam, (2S)-2-(2-oxopyrrolidin-1-yl)butanamide]
time spent in the target quadrant vs vehicle: did not significantly improve
